“Also recorded” adds a separate entry of the source. Where two headings read alike, the source gives them in different places.
How the values were obtained:
[1] = system: Parascaris sp. muscle flap; experiment: Parascaris sp. body muscle flap isometric contraction assay
Method: For the contraction assay, adult female Parascaris sp. worms were collected weekly from the slaughterhouse at Vrčin, Belgrade, Serbia. Worms were maintained in Locke’s solution, composition (mM): NaCl 155, KCl 5, CaCl2 2, NaHCO3 1.5 and glucose 5, at a temperature of 32 °C. The Locke’s solution was changed twice daily, and each batch of worms was used within 2 days of collection. Parascaris muscle flaps for the contractions were prepared by dissecting the anterior part of the worm, 3–4 cm caudal to the head (Figure 1b). Each flap (always the same length of 1 cm) was monitored isometrically by attaching a force transducer in an experimental bath maintained at 37 °C, containing 20 mL Ascaris Perienteric Fluid Ringer/APF Ringer (mM: NaCl, 23; Na-acetate, 110; KCl, 24; CaCl2, 6; MgCl2, 5; glucose, 11; HEPES, 5; pH 7.6) and bubbled with room air. After dissection, the preparations were allowed to equilibrate for 15 min under an initial tension of 1.5 g. […] Responses for each concentration were expressed in grams of tension (g), produced by each individual flap preparation. The effect of carvacrol (300 μM) on the acetylcholine dose–response plots was determined. Contractions were monitored on a PC using a BioSmart interface and eLAB software (ElUnit, Belgrade, Serbia). The system allows real-time recording, display and analysis of experimental data. Sigmoid dose–response curves for each individual flap preparation at each concentration of the antagonist were described by the Hill equation.
(§1) The results of the contraction assay are expressed as means ± S.E. in grams (g) of tension. […] GraphPad Prism® Software (San Diego, CA, USA) was used to estimate the constants EC50 and nH by non-linear regression for each preparation. We determined the mean contraction responses to each concentration of acetylcholine. Whole cell current electrophysiology responses were analyzed using the pCLAMP 10.4 package (Molecular Devices). […] One-way analysis of variance (ANOVA) was applied for the comparison of the differences between the EC50 value and the maximal effect (Rmax). Differences were considered significant when the p value was < 0.05. The statistical analysis was conducted using GraphPad Prism® software (San Diego, CA, USA), while all values are expressed as mean ± standard error (S.E.).

[2] = molecular target: Parascaris sp. ACR-16 N-AChR (Parascaris equorum, UniProt A0A3S9VMQ8); experiment: Two-electrode voltage-clamp on Parascaris sp. ACR-16 N-AChR expressed in Xenopus oocytes; format: cell-based; settings: for reduction of ACh maximal response amplitude: p < 0.05
Method: (§2) Parascaris sp. ACR-26/27 M-AChR as well as Parascaris sp. and A. suum ACR-16 N-AChRs were expressed in Xenopus laevis oocytes as previously described. Briefly, Xenopus laevis defolliculated oocytes were obtained from Ecocyte Bioscience (Germany). Oocytes were micro-injected with 36 nL of cRNA mixes containing 50 ng/µL of each cRNA encoding subunits of interest and three H. contortus ancillary factors (Hco-RIC-3.1, Hco-UNC-50 and Hco-UNC-74). After 3–4 days of incubation, the oocytes were assayed under voltage clamp at −60 mV, and electrophysiological recordings were performed as described previously. The carvacrol concentration-dependent inhibition of acetylcholine current response was assessed for Parascaris- and Asu-ACR-16 channels with the protocol described by Zheng et al..
as §1

[3] = molecular target: Parascaris sp. ACR-26/27 M-AChR (Parascaris equorum, UniProt A0A0U2ES47+A0A0U2ES58); experiment: Two-electrode voltage-clamp on Parascaris sp. ACR-26/27 M-AChR expressed in Xenopus laevis oocytes; format: cell-based
Method: as §2, §1

[4] = system: A. suum innervated muscle strips; settings: 300 µM of carvacrol; cited from earlier work
A. suum ACR-16 N-AChR = molecular target: T1, A. suum ACR-16 N-AChR (Ascaris suum, UniProt F1KYJ9); experiment: cell-based
T1 construct: expressed in transfected cells; host or cells: Xenopus laevis oocytes (cRNA micro-injection)
T1 sequence (F1KYJ9 1-504): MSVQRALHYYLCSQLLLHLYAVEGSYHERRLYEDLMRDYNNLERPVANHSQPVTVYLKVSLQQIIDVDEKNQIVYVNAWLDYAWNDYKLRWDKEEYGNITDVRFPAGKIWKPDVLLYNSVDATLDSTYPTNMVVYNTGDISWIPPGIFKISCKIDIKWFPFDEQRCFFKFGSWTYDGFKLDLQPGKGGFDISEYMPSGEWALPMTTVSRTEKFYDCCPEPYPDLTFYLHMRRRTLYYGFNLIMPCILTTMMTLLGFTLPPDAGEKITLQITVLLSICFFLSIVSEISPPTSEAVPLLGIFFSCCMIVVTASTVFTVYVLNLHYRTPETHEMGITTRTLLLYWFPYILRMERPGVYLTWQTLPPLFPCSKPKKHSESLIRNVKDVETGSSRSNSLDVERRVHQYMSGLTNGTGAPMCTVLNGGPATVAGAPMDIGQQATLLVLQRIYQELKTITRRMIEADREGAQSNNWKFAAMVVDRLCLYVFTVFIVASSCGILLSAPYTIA
Method: as §2, §1

Sequence of Parascaris sp. ACR-16 N-AChR (A0A3S9VMQ8 entry or part of it): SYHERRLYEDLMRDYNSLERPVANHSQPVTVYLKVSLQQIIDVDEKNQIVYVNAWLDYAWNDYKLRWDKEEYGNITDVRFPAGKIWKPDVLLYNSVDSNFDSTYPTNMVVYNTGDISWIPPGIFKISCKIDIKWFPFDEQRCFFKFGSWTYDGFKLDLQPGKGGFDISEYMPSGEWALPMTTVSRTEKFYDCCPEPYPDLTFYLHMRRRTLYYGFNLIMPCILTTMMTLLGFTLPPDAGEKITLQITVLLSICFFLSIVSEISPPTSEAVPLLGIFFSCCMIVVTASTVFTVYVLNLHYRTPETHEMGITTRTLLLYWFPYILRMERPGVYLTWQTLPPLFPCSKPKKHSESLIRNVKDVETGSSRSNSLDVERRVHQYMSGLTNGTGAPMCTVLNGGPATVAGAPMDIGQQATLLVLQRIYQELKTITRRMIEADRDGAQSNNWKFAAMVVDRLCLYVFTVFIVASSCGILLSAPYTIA
Sequence of Parascaris sp. ACR-26/27 M-AChR (A0A0U2ES58 entry or part of it): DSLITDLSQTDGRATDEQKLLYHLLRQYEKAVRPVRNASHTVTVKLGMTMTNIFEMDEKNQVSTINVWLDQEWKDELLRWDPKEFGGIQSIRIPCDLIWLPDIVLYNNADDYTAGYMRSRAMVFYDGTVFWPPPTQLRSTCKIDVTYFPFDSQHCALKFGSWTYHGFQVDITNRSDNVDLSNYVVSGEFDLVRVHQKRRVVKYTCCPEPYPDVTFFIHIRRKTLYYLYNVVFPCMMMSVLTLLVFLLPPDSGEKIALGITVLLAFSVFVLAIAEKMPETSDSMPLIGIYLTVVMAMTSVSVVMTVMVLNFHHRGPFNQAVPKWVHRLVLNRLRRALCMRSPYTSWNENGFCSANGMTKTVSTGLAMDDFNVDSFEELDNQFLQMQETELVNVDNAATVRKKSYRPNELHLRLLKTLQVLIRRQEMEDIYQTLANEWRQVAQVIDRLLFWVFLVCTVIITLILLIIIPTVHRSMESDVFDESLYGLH
Sequence of Parascaris sp. ACR-26/27 M-AChR (A0A0U2ES47 entry or part of it): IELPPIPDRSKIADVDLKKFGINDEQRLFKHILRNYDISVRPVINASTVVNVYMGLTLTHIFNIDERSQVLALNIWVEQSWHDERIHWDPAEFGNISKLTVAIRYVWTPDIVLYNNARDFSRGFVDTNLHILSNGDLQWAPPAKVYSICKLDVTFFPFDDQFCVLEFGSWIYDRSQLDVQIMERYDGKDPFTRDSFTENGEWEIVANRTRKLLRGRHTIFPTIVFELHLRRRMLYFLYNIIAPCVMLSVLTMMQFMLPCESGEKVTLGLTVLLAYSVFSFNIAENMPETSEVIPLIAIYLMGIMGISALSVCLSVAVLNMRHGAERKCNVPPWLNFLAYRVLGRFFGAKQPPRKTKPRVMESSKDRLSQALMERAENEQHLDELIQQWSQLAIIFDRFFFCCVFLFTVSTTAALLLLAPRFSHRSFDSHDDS

Question: For `CC(=O)OCC[N+](C)(C)C` [ACh, Acetylcholine chloride], which “maximal effect (Rmax), contraction” value ([1]; obtained with 100 µM ACh) is on record?
Answer: The value was 1.19 ± 0.051 g.

Question: What about the EC50 ([1]; read-out: EC50 of ACh, muscle flap contraction, control, no carvacrol, n = 5) of the same compound?
Answer: The EC50 was 6.08 µM.

Question: What about the EC50 ([1]; read-out: log EC50 of ACh, muscle flap contraction (converted)) of the same compound?
Answer: The EC50 was 6.03 µM.

Question: What about the “Hill coefficient of ACh concentration-response” value (“Hill coefficient” below) ([2]; 100 µM carvacrol) of the same compound?
Answer: The value was 2.0 ± 0.3.

Question: And the “Hill coefficient” value ([2]; 300 µM carvacrol)?
Answer: The value was 2.1 ± 0.4.

Question: What about the EC50 ([2]; ACh EC50, presence of 100 µM carvacrol, n = 6) of the same compound?
Answer: Its EC50 is 5.9 µM.

Question: What about the EC50 ([2]; ACh EC50, presence of 300 µM carvacrol, n = 10) of the same compound?
Answer: Its EC50 is 8.2 µM.

Question: And the EC50 ([2]; ACh EC50, without carvacrol, n = 6)?
Answer: The EC50 was 6.5 µM.

Question: And the EC50 ([2]; ACh log EC50, presence of 100 µM carvacrol, n = 6)?
Answer: The EC50 was 5.92 µM.

Question: What about the EC50 ([2]; ACh log EC50, presence of 300 µM carvacrol, n = 10) of the same compound?
Answer: The EC50 was 8.18 µM.

Question: And the “Hill coefficient” value ([2]; without carvacrol)?
Answer: Its value is 2.0 ± 0.2.

Question: What about the “ACh log EC50” value ([2]; without carvacrol, log of EC50 in µM, n = 6) of the same compound?
Answer: The value was 0.811 ± 0.028.

Question: What about the EC50 ([3]; ACh EC50, absence of carvacrol, normalized to 100 µM ACh, n = 6) of the same compound?
Answer: Its EC50 is 25 µM.

Question: And the EC50 ([3]; ACh EC50, continued perfusion of 100 µM carvacrol, n = 5)?
Answer: The EC50 was 12.2 µM.

Question: What about the EC50 ([3]; ACh EC50, continued perfusion of 300 µM carvacrol, n = 6) of the same compound?
Answer: Its EC50 is 6.6 µM.

Question: What about the EC50 ([3]; ACh log EC50, absence of carvacrol, log of EC50 in µM, n = 6) of the same compound?
Answer: The EC50 was 25 µM.

Question: What about the EC50 ([3]; ACh log EC50, continued perfusion of 100 µM carvacrol, n = 5) of the same compound?
Answer: The EC50 was 12.2 µM.

Question: What about the EC50 ([3]; ACh log EC50, continued perfusion of 300 µM carvacrol, n = 6) of the same compound?
Answer: Its EC50 is 6.56 µM.

Question: And the “Hill coefficient” value ([3]; absence of carvacrol)?
Answer: Its value is 1.4 ± 0.1.

Question: And the “Hill coefficient” value ([3]; presence of 100 µM carvacrol)?
Answer: The value was 1.7 ± 0.4.

Question: What about the “Hill coefficient” value ([3]; presence of 300 µM carvacrol) of the same compound?
Answer: Its value is 1.5 ± 0.3.

Question: With `Cc1ccc(C(C)C)cc1O` [carvacrol] as the compound, how does the “inhibition of the ACh contractile effect” value [4] read?
Answer: Its value is at most 49%.

Question: What about the IC50 (A. suum ACR-16 N-AChR) of the same compound?
Answer: Its IC50 is 36.4 ± 1.3 µM.

Question: And the mode of action (A. suum ACR-16 N-AChR)?
Answer: The mode of action was “non-competitive antagonist”.

Question: And the “higher affinity for the A. suum N-AChR over the Parascaris sp. N-AChR” value (A. suum ACR-16 N-AChR; from concentration-inhibition data)?
Answer: The value was “approximately 5 fold”.

Question: And the “inhibitory effect after removal of carvacrol from experimental baths (washing)” value ([1]; 300 µM carvacrol)?
Answer: Its value is “remained even after removal”.

Question: What about the “effect on contractions induced by ACh” value ([1]; 300 µM carvacrol, ACh 1 to 100 µM) of the same compound?
Answer: The value was “completely abolished; also recorded: fully and irreversibly abolished; also recorded: full inhibition”.

Question: And the IC50 [2]?
Answer: The IC50 was 177.8 ± 1.1 µM.

Question: What about the mode of action [2] of the same compound?
Answer: Its mode of action is “non-competitive antagonist”.

Question: What about the agonist effect ([2]; 300 µM carvacrol) of the same compound?
Answer: The agonist effect was “no agonist effect”.

Question: What about the “reduction of ACh maximal response amplitude” value ([2]; presence of 100 µM carvacrol) of the same compound?
Answer: The value was 2 fold.

Question: And the “reduction of ACh maximal response amplitude” value ([2]; presence of 300 µM carvacrol)?
Answer: Its value is 3 fold.

Question: What about the mode of action [3] of the same compound?
Answer: Its mode of action is “non-competitive antagonist”.

Question: What about the agonist action ([3]; carvacrol perfused alone) of the same compound?
Answer: The agonist action was “no agonist action”.

Question: What about the “effect on efficacy of ACh activation (Imax)” value ([3]; perfusion of 100 and 300 µM carvacrol, p < 0.0001) of the same compound?
Answer: The value was “significantly reduced”.

Question: What about the IC50 ([3]; read-out: IC50, inhibition of ACh-elicited current) of the same compound?
Answer: Its IC50 is 169.3 ± 1 µM.
